Measurements taken from the NIST ThermoML archive (doi:10.1021/acs.jced.5b00814).
Numbers after ± are expanded uncertainties.

Columns and labels:
[1] = Crystal; DTA
[2] = Molar enthalpy of transition or fusion; settings: Crystal; DSC

O=C(O)/C=C/c1ccccc1 [(E)-cinnamic acid]
Normal melting temperature [1]: 133.00 ± 0.7 °C
Molar enthalpy of transition or fusion [2]: 5.31 ± 0.203 kcal/mol
